Assays:
[1] = target: High affinity nerve growth factor receptor (Homo sapiens, UniProt P04629, G595R); assay: Inhibition of TRKA G595R mutant (unknown origin) using TK as substrate incubated for 30 mins in presence of ATP by HTRF assay
[2] = target: NT-3 growth factor receptor (Homo sapiens, UniProt Q16288); assay: Inhibition of TRKC (unknown origin) using TK as substrate incubated for 40 mins in presence of ATP by HTRF assay
[3] = target: High affinity nerve growth factor receptor (Homo sapiens, UniProt P04629, F589L); assay: Inhibition of TRKA F589L mutant (unknown origin) using TK as substrate incubated for 30 mins in presence of ATP by HTRF assay
[4] = target: High affinity nerve growth factor receptor (Homo sapiens, UniProt P04629, G667C); assay: Inhibition of TRKA G667C mutant (unknown origin) using TK as substrate incubated for 30 mins in presence of ATP by HTRF assay
[5] = target: High affinity nerve growth factor receptor (Homo sapiens, UniProt P04629); assay: Inhibition of TRKA (unknown origin) using TK as substrate incubated for 30 mins in presence of ATP by HTRF assay
MCF7 = assay: cells; settings: Homo sapiens, MCF7, 72 h
Description: Antiproliferative activity against human MCF7 cells incubated for 72 hrs by CCK8 assay

BaF3 [6] = assay: cells; settings: Mus musculus, BaF3, 72 h
Description: Antiproliferative activity against mouse BaF3 cells expressing TRKA G595R mutant incubated for 72 hrs by CCK8 assay

BaF3 [7] = assay: cells; settings: Mus musculus, BaF3, 72 h; remark: listed apart in the source
KM12 = assay: cells; settings: Homo sapiens, KM12, 72 h
Description: Antiproliferative activity against human KM12 cells incubated for 72 hrs by CCK8 assay

High affinity nerve growth factor receptor (Homo sapiens, UniProt P04629, F589L), sequence (P04629 33-796 F589L limits assumed): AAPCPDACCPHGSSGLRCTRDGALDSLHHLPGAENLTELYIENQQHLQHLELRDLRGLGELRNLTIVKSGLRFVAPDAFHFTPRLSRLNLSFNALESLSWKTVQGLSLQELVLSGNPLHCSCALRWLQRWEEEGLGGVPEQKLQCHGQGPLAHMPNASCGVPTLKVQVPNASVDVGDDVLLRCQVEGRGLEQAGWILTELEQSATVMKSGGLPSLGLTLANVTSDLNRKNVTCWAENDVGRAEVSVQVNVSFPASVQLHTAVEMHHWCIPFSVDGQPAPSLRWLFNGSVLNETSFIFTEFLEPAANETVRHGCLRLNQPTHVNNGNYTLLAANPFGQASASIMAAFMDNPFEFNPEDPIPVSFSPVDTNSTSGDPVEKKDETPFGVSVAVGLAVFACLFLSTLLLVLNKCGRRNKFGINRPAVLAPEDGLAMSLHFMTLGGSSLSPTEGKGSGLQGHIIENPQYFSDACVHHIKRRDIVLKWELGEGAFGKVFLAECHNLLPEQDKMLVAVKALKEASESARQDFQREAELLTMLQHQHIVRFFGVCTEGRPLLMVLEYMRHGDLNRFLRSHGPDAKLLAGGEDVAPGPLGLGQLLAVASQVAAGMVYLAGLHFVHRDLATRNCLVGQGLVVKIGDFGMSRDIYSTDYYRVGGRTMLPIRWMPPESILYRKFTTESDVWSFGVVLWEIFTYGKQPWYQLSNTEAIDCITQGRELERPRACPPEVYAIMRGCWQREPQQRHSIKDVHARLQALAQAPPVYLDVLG
High affinity nerve growth factor receptor (Homo sapiens, UniProt P04629, G595R), sequence (P04629 33-796 G595R limits assumed): as the sequence (P04629 33-796 F589L limits assumed) above, with L557F, G563R counted along it
High affinity nerve growth factor receptor (Homo sapiens, UniProt P04629, G667C), sequence (P04629 33-796 G667C limits assumed): as the sequence (P04629 33-796 F589L limits assumed) above, with L557F, G635C counted along it
High affinity nerve growth factor receptor (Homo sapiens, UniProt P04629), sequence (P04629 whole entry): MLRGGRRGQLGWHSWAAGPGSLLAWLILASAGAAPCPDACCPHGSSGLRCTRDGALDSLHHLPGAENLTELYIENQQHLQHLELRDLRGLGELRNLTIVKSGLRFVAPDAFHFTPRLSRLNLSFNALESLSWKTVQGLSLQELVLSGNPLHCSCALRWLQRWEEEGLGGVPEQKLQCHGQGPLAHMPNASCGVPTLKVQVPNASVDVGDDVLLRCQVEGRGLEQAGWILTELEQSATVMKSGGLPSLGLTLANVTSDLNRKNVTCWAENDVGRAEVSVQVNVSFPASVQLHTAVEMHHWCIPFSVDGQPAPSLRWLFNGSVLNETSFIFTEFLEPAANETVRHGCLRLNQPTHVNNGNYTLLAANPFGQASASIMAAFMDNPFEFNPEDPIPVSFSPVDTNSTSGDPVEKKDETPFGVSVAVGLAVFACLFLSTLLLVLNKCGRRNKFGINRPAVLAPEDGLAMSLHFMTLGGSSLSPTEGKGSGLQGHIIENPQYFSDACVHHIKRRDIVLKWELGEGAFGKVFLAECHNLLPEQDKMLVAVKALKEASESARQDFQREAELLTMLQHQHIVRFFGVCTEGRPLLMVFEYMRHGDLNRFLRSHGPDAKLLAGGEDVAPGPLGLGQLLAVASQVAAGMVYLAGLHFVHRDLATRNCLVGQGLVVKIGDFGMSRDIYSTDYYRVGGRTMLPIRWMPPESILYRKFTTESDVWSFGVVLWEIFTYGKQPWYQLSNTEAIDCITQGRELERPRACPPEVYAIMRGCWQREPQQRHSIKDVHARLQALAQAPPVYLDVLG
NT-3 growth factor receptor, sequence (Q16288 whole entry): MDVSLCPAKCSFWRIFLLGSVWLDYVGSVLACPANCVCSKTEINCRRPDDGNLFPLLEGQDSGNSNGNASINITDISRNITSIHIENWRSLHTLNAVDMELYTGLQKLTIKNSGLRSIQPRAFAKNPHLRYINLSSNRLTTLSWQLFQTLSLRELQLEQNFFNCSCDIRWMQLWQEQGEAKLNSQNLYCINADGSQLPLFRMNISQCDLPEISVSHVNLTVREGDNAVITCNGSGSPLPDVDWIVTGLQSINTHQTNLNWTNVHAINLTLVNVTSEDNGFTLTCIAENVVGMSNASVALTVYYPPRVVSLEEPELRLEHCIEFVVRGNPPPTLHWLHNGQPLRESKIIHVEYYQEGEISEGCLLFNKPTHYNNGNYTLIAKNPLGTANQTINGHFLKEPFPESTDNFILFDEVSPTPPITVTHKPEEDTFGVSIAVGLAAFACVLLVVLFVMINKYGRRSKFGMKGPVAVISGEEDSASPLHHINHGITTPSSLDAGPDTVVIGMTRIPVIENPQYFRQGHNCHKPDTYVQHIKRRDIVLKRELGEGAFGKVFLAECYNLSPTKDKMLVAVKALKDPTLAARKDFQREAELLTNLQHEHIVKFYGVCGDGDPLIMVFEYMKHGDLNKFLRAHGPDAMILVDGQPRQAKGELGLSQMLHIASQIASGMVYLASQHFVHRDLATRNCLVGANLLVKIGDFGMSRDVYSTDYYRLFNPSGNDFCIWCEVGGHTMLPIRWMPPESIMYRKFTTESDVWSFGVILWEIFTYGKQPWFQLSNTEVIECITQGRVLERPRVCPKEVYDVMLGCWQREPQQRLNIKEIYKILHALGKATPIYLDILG

Compound | IC50 [1] | also measured
COc1ccc(F)cc1CNc1ccc2[nH]nc(C#N)c2c1 | 170 nM | 
COc1ccc(F)cc1CNc1ccc2[nH]nc(-n3cc(F)cn3)c2c1 | 350 nM | 
COc1ccc(F)cc1CNc1ccc2[nH]nc(-n3cnc(C(F)(F)F)c3)c2c1 | 580 nM | 
COc1ccc(F)cc1CNc1ccc2[nH]nc(-n3cccn3)c2c1 | 550 nM | 
COc1ccc(F)cc1CNc1ccc2[nH]nc(-c3ccc(F)cc3)c2c1 | 1350 nM | 
Fc1ccc(OCC(F)F)c(CNc2ccc3[nH]nc(-n4ccnn4)c3c2)c1 | 63 nM | IC50 (MCF7): > 10000 nM; IC50 (BaF3 [6]): 132 nM; IC50 (BaF3 [7]): 136 nM; IC50 (KM12): 9.8 nM; IC50 [2]: 4 nM; IC50 [3]: 2 nM; IC50 [4]: 61 nM; IC50 [5]: 3 nM
Fc1ccc(OCC(F)F)c(CNc2ccc3[nH]nc(-n4cncn4)c3c2)c1 | 19 nM | IC50 (MCF7): > 10000 nM; IC50 (BaF3 [6]): 54.5 nM; IC50 (BaF3 [7]): 64.1 nM; IC50 (KM12): 5.7 nM; IC50 [2]: 2 nM; IC50 [3]: 1 nM; IC50 [4]: 25 nM; IC50 [5]: 1 nM
COc1ccc(F)cc1CNc1ccc2[nH]nc(C(=O)N3CCC(O)C3)c2c1 (stereo unspecified) | > 50000 nM | 
CNC(=O)c1n[nH]c2ccc(NCc3cc(F)ccc3OCC(F)F)cc12 |  | IC50 [2]: 3 nM
Fc1ccc(OCC(F)F)c(CNc2ccc3[nH]nc(-c4cnoc4)c3c2)c1 | 35 nM | IC50 [3]: 8 nM; IC50 [4]: 49 nM; IC50 [5]: 5 nM
COc1ccc(F)cc1CNc1ccc2[nH]nc(-c3cccc(F)c3)c2c1 | 360 nM | 
COc1ccc(F)cc1CNc1ccc2[nH]nc(-n3cc(C(F)(F)F)cn3)c2c1 | 5700 nM | 
COc1ccc(F)cc1CNc1ccc2[nH]nc(-c3cn[nH]c3)c2c1 | 110 nM | 
COc1ccc(F)cc1CNc1ccc2[nH]nc(C(=O)N3CCC(F)(F)C3)c2c1 | 33100 nM | 
C[C@@H]1CCc2ncc(F)cc2[C@H]2CCCN2c2ccn3ncc(c3n2)C(=O)N1 [SELITRECTINIB] |  | IC50 (MCF7): > 10000 nM; IC50 (BaF3 [6]): 12 nM; IC50 (BaF3 [7]): 113 nM; IC50 (KM12): 6.8 nM

The next lines start with results.

IC50 [1] | Compound | also measured
30 nM | N#Cc1n[nH]c2ccc(NCc3cc(F)ccc3OCC(F)F)cc12 | IC50 [2]: 3 nM; IC50 [3]: 10 nM; IC50 [4]: 1200 nM; IC50 [5]: 32 nM
4830 nM | COc1ccc(F)cc1CNc1ccc2[nH]nc(C(=O)NO)c2c1 | 
1170 nM | CNC(=O)c1n[nH]c2ccc(NCc3cc(F)ccc3OCCO)cc12 | 
290 nM | CNC(=O)c1n[nH]c2ccc(NCc3cc(F)ccc3OC3CCOCC3)cc12 | 
5580 nM | CNC(=O)c1n[nH]c2ccc(NCc3cc(F)ccc3P(C)(C)=O)cc12 | 
240 nM | CNC(=O)c1n[nH]c2ccc(NCc3cc(F)ccc3OC(C)C)cc12 | 
140 nM | CNC(=O)c1n[nH]c2ccc(NCc3cc(F)ccc3OCC(F)(F)F)cc12 | 
210 nM | CNC(=O)c1n[nH]c2ccc(NCc3cc(F)ccc3OC3CCOC3)cc12 (stereo unspecified) | 
670 nM | COc1ccc(F)cc1CNc1ccc2[nH]nc(C(N)=O)c2c1 | 
8590 nM | COc1ccc(F)cc1CNc1ccc2[nH]nc(C(=O)NCC(F)F)c2c1 | 
200 nM | CNC(=O)c1n[nH]c2ccc(NCc3cc(F)ccc3OCCF)cc12 | 
1120 nM | CNC(=O)c1n[nH]c2ccc(NCc3cc(F)ccc3S(C)(=O)=O)cc12 | 
380 nM | CNC(=O)c1n[nH]c2ccc(NCc3cc(F)ccc3OC(F)F)cc12 | 
3650 nM | COc1ccc(F)cc1CNc1ccc2[nH]nc(C(=O)NC3CC3)c2c1 | 
92 nM | CNC(=O)c1n[nH]c2ccc(NCc3cc(F)ccc3OC)cc12 | 

Source: ChEMBL document CHEMBL5579859, “Discovery of novel indazole derivatives as second-generation TRK inhibitors” (Eur J Med Chem, 2024)
